A word on the inhibition: it is how much of the control response was suppressed.

This assay deals with T1, rRT (exogenous recombinant RT) (Human immunodeficiency virus type 1 group M subtype B, UniProt P03366).
T1 construct: recombinant RT was added with a known activity and concentration; purchased Cavidi (Sweden) 52010
The assay can be described thus: Direct effect on exogenous recombinant RT (rRT), HS-Lenti RT activity kit. It is filed as biochemical, HIV-1. Conditions: for inhibition at 10 µM: 0.01 mM. The procedure:
The RT test was performed by using HS-Lenti RT activity kit test provided by Cavidi (Sweden) for direct study of inhibitory effect of rRT. HS-Lenti RT activity assay provides an opportunity for direct determination of the effects of the test compound 1 and the control compound 2 on the activity of rRT, of known concentrations. […] Such opportunity is provided by the test kit manufacturer, see literature reference 10: • 10) X. Shao, D. Ekstrand, R. Bhikhabhai, C. Kallander, J. Gronowitz: A non-radioactive microtitre plate reverse transcriptase (RT) assay, based on immobilized template, for screening of RT activity inhibitors and evaluation of the mode of action, Antiviral Chem. Chemother. 8 (1997) 149-159.
For the control, commonly used substance with proven antiviral activity was employed; in our case, we used Kivexa, which contains 600 mg Abacavir and 300 mg of Lamivudine, which is applied in clinical practice as nucleoside inhibitor of RT. In the presence of RT inhibition in the test, it is concluded that not only the replication of the virus is inhibited, but also probably the target of the inhibitory effect is RT itself. To confirm this conclusion, it is necessary that percentage (%) of inhibition of the RT coincides with the % inhibition in the microtiter MTT assay. […] After incubation, we determined whether the activity of the enzyme shall be amended (inhibited) by action of the compounds 1 or 2. […]
The procedure was as follows: In wells of a company plate coated with a matrix poly-rA, are added reaction mixture to RT, the primer containing oligo-dT, Brd UTP as a source of dNTP and prepared at buffer of the commercial test 10× more concentrated (as reaction mixture was in a volume of 100 μl) of the test substance dilutions. […] Manifestation of the enzyme reaction was carried out using a suitable substrate for alkaline phosphatase for 30 minutes and then the absorbance was detected at a wavelength of 405 nm. […]

Regarding `O=c1oc2cc(O)c(O)cc2c(O)c1-c1coc2c1c(=O)oc1cc(O)c(O)cc12` [Compound 2, 7,8-dihydroxy-3-(4,6,7-trihydroxy-2-oxo-2H-chromen-3-yl)-4H-furo[3,2-c]chromen-4-one, reference compound], the inhibition at 10 µM amounted to 0%.

Regarding `O=c1oc2cc(O)cc(O)c2c(O)c1-c1coc2c1c(=O)oc1cc(O)cc(O)c12` [Compound 1, 7,9-dihydroxy-3-(4,5,7-trihydroxy-2-oxo-2H-chromene-3-yl)-4H-furo[3,2-c]chromen-4-one], the inhibition at 10 µM worked out at 72.8%. Further, under “0.005 mM”, the inhibition at 5 µM was 0%.

These data come from US10266545B2, “Coumarin derivative as antiviral agent, pharmaceutical composition thereof, its preparation and use” (I-NOVA MEDICINSKA ISTRAZIVANJA D.O.O., priority 2016, dated 2019).
